Experimental data from PubChem BioAssay AID2202558 (NIEHS Division of Translational Toxicology (DTT)).
Inconclusive results are not listed. Active and inactive are the calls of the source. The rule behind the calls is not given here. *1 amine or outer side, *2 acyl side, *3 side chain or, on linkers, in order; H or OH if unused. Where a SMILES comes first, the peptide text is derived from it. Bridges are numbered along the chain shown (N, C = ends). Roman numbers before positions name the chains, in order. [ ]: non-standard residue; d: D form. Actinocin(9to1) = Cc1c2oc3c(C)ccc(C(=O)[*:1])c3nc-2c(C(=O)[*:2])c(N)c1=O; NMeV = CN[C@H](C(=O)O)C(C)C; Sar = CNCC(=O)O

System: mouse/rat in vivo micronucleus assay, summary call
Assay: In vivo micronucleus assay summary data
From the text: The erythrocyte micronucleus test examines the ability of substances to cause chromosome damage in developing red blood cells inside bone marrow. A micronucleus (literally, "little nucleus") is a biomarker of structural chromosome damage (e.g., breaks) and changes in chromosome number (e.g., chromosome loss). If a chromosome is broken or fails to migrate properly with other chromosomes during cell division, the broken piece or lost chromosome will form a small (micro) nucleus of its own in one of the two daughter cells produced. Detection of chromosomal damage is important because it has been linked to birth defects, infertility, and certain diseases, including cancer.
The micronucleus test is performed in rapidly dividing cell populations, and bone marrow is a site of rapid blood cell division. Both bone marrow and peripheral blood samples can be examined for the presence of micronuclei in red blood cells.
Animals are treated with a test substance once or daily over a period of time, and the frequency of micronucleated cells is determined 24-48 hours after the final treatment, depending on the source of the cells (bone marrow or blood) that are examined and the treatment regimen.
The test subjects are rodents (rats or mice) that are exposed to the test substance, usually by oral gavage or injection. Typically, one to three daily treatments of the test substance are administered over a range of doses; the highest dose tested is near the maximum tolerated dose. Groups of negative and positive control animals are included for each test. Bone marrow samples are obtained from all animals 24 hours after the last treatment, and red blood cells are examined for the presence of micronuclei.
B. Peripheral Blood Tests
Micronucleus tests are performed on male and female rodents that are exposed to the test substance orally, dermally, or by inhalation in subchronic (e.g., 28 or 90 days) or short term (e.g., 48-72 hours) toxicity studies. 24 to 48 hours after the final exposure, peripheral blood samples are obtained and red blood cells are examined for the presence of micronuclei. Samples may be examined using standard slide scoring procedures or automated flow cytometric approaches. Since 2007, NTP has routinely relied on flow cytometry to evaluate the frequency of micronucleated cells in peripheral blood.
Peripheral blood micronucleus assays are typically integrated into all NTP toxicity studies, and they also lend themselves to serial monitoring of micronucleus frequencies over time, since blood samples can be obtained without the need to sacrifice the animals.
Blood or bone marrow samples from treated animals are compared to samples from untreated animals. With the slide-based approach for data acquisition, 1000-2000 cells were scored per animal. Using flow cytometric procedures to evaluate blood samples, 20,000 immature red blood cells and around one million mature red blood cells are examined per animal, resulting in a marked increase in the ability to detect small changes in the frequency of micronucleated red blood cells. The data is analyzed using statistical methods to determine if there is a significant increase in the frequency of cells containing micronuclei. Both dose-related responses and the magnitude of response for each independent dose group are considered during the evaluation of the data. For a positive test, both a significant dose response (trend) and at least one significant dose group are required. If only one of these measures is present, the test is determined to be questionable. The absence of either condition results in a negative test. The final conclusions for micronucleus tests are determined by considering the results of statistical analyses, reproducibility of any observed effects, and the magnitude of the effects. Ultimately, both the biological significance as well as statistical significance is considered when reaching a final conclusion.
[…]

**Q.** CC(C)(C)c1ccc(O)c(O)c1 was tested. Which outcome did it give?
**A.** inactive; negative

**Q.** With O=C(O)CCCc1ccc(N(CCCl)CCCl)cc1 as the molecule, how does the outcome read?
**A.** active; positive

**Q.** C=C(C#N)C(=O)OCC was tested. Which outcome did it give?
**A.** inactive; negative

**Q.** For Nc1ccc(Cc2ccc(N)cc2)cc1, which outcome is on record?
**A.** active; positive (nonstandard protocol)

**Q.** With C[N+](C)(C)Cc1ccccc1 as the molecule, how does the outcome read?
**A.** active; positive

**Q.** Oc1cccc(O)c1 was tested. Which outcome did it give?
**A.** active; positive

**Q.** For Nc1cc([N+](=O)[O-])ccc1O, which outcome is on record?
**A.** inactive; negative

**Q.** How did the outcome turn out when COC(=O)c1ccccc1C(=O)OC was run?
**A.** inactive; negative

**Q.** For Cc1c2oc3c(C)ccc(C(=O)N[C@@H]4C(=O)N[C@H](C(C)C)C(=O)N5CCC[C@H]5C(=O)N(C)CC(=O)N(C)[C@@H](C(C)C)C(=O)O[C@@H]4C)c3nc-2c(C(=O)N[C@@H]2C(=O)N[C@H](C(C)C)C(=O)N3CCC[C@H]3C(=O)N(C)CC(=O)N(C)[C@@H](C(C)C)C(=O)O[C@@H]2C)c(N)c1=O (I: T[dV]P[Sar][NMeV] / II: T[dV]P[Sar][NMeV]; ester I:1-I:C, II:1-II:C; linker I:N-II:N via Actinocin(9to1)), which outcome is on record?
**A.** active; positive

**Q.** For Oc1ccc(/C=C/c2cc(O)cc(O)c2)cc1, which outcome is on record?
**A.** inactive; negative

**Q.** For COc1cccc2c1C(=O)c1c(O)c3c(c(O)c1C2=O)C[C@@](O)(C(=O)CO)C[C@@H]3O[C@H]1C[C@H](N)[C@H](O)[C@H](C)O1, which outcome is on record?
**A.** active; positive

**Q.** Which outcome does the source give for CCCOC(=O)c1cc(O)c(O)c(O)c1 here?
**A.** active; positive

**Q.** Which outcome does the source give for CC[C@]1(O)C[C@H]2CN(CCc3c([nH]c4ccccc34)[C@@](C(=O)OC)(c3cc4c(cc3OC)N(C=O)[C@H]3[C@@](O)(C(=O)OC)[C@H](OC(C)=O)[C@]5(CC)C=CCN6CC[C@]43[C@@H]65)C2)C1 here?
**A.** active; positive

**Q.** How did the outcome turn out when CC=Cc1ccc(O)c(OC)c1 was run?
**A.** active; positive

**Q.** For COc1cc(Cc2cnc(N)nc2N)cc(OC)c1OC (tested in a mixture with another compound), which outcome is on record?
**A.** active; positive

**Q.** Which outcome does the source give for Cn1c(=O)c2[nH]cnc2n(C)c1=O here?
**A.** active; positive

**Q.** C=CC(=C)C was tested. Which outcome did it give?
**A.** active; positive

**Q.** With CC(C)N=C=NC(C)C as the molecule, how does the outcome read?
**A.** active; positive

**Q.** C=CC=C was tested. Which outcome did it give?
**A.** active; positive (nonstandard protocol)

**Q.** With Cc1cccc([N+](=O)[O-])c1 as the molecule, how does the outcome read?
**A.** inactive; negative

**Q.** How did the outcome turn out when OCC1CO1 (configuration not stated) was run?
**A.** active; positive

**Q.** How did the outcome turn out when O=S1(=O)CCCC1 was run?
**A.** inactive; negative

**Q.** How did the outcome turn out when Cc1cn([C@H]2C[C@H](N=[N+]=[N-])[C@@H](CO)O2)c(=O)[nH]c1=O was run?
**A.** active; positive

**Q.** C1CCC2CCCCC2C1 (configuration not stated) was tested. Which outcome did it give?
**A.** active; weakly positive

**Q.** For O=C(O)C=Cc1ccc(O)c(O)c1, which outcome is on record?
**A.** active; positive

**Q.** For CN(C)c1ccc(C(c2ccccc2)c2ccc(N(C)C)cc2)cc1, which outcome is on record?
**A.** active; positive

**Q.** Which outcome does the source give for N[C@@H](Cc1ccc(N(CCCl)CCCl)cc1)C(=O)O here?
**A.** active; positive

**Q.** With [O]=[Sb][O][Sb]=[O] as the molecule, how does the outcome read?
**A.** active; positive

**Q.** How did the outcome turn out when Nc1ncnc2c1ncn2[C@H]1CC[C@@H](CO)O1 was run?
**A.** active; positive

**Q.** How did the outcome turn out when CN(C)C(=O)Nc1ccc(Cl)cc1 was run?
**A.** active; positive

**Q.** Which outcome does the source give for C[C@H](Cn1cnc2c(N)ncnc21)OCP(=O)(O)O here?
**A.** active; positive

**Q.** For Cc1cc(O)c2c(c1)C(=O)c1cc(O)cc(O)c1C2=O, which outcome is on record?
**A.** active; positive

**Q.** Which outcome does the source give for c1cc(OCC2CO2)cc(OCC2CO2)c1 (configuration not stated) here?
**A.** active; positive

**Q.** CCCC=NO was tested. Which outcome did it give?
**A.** active; positive

**Q.** For O=C(O)C(Br)Br, which outcome is on record?
**A.** active; positive

**Q.** [O-][Br+2]([O-])O was tested. Which outcome did it give?
**A.** active; positive

**Q.** Which outcome does the source give for CBr here?
**A.** active; positive

**Q.** ClC=CCCl was tested. Which outcome did it give?
**A.** active; positive

**Q.** Which outcome does the source give for CC(C)=CCl here?
**A.** active; positive

**Q.** Which outcome does the source give for CCn1cc[n+](C)c1 here?
**A.** inactive; negative

**Q.** How did the outcome turn out when CC[n+]1c(-c2ccccc2)c2cc(N)ccc2c2ccc(N)cc21 was run?
**A.** inactive; negative

**Q.** Which outcome does the source give for O=C1c2cccc(O)c2C(=O)c2c(O)cccc21 here?
**A.** inactive; negative
